Where two headings read alike, the source gives them in different places.
What was measured:
A. baumannii 1757 [1] = experiment: Zebrafish larvae infection model; conditions: rifampicin / erythromycin experiment (Table S8); infected larvae, caudal vein injection, five days post infection; mean of three independent experiments
Method: Transparent Casper zebrafish (Danio rerio) larvae were infected and treated according to protocols described by Van der Sar et al. and Bernard et al. [43, 44]. In short, zebrafish larvae collected from a laboratory-breeding colony kept at 24 °C and a 12:12 h dark/light regime. Larvae were selected based on morphology according to hours post fertilization (hpf) and kept at 28 °C. All protocols followed the international guidelines on the protection of animals used for scientific purposes specified by the EU Directive 2010/63/EU, which allows zebrafish larvae to be used up to the moment of free-living (5–7 dpf). Larvae were dechorionated at 28 hpf and anaesthetized in 0.2% tricaine methanesulfonate (MS222, Fluka A-5040). Larvae were individually infected with 1 nL, containing approximately 100–150 CFU (1–1.5 CFU/mL), of Gram-negative bacteria via microinjection of the caudal vein as described previously [33]. One hour post infection, larvae were treated with cationic (stapled) peptides, antibiotics or a combination of the two via another microinjection of 1 nL in the caudal vein. […] Zebrafish larvae were kept at 30 °C throughout the experiment and survival of the larvae, based on heartbeat, was determined every 24 h for 5 days.

E. coli gsk12 = experiment: MIC / checkerboard synergy assay; format: cell-based, Escherichia coli
Method: (§1) Minimum inhibitory concentrations of the peptides and antibiotics were determined according to the protocol described by Wiegand et al.. Briefly, two-fold dilution series of cationic peptides in 50 µL volume of LB broth containing 2% DMSO were made in polypropylene 96-well microtiter plates (Ratiolab, L6018123, Dreieich, Germany). The optical density at 600 nm (OD600) of growing bacterial cultures was followed, and at mid-log-phase (OD600 ~0.4–0.5) cultures were diluted to OD600 0.02 and 50 µL was added to the wells, resulting in a total volume of 100 µl, an OD600 of ~0.01 and a DMSO concentration of 1%. An OD600 of ~0.01 accounted for approximately 3 × 10^8 colony forming units per mL (CFU/mL) for A. baumannii, 1 × 10^7 CFU/mL for E. coli and 5 × 10^7 CFU/mL for K. pneumoniae as determined by plate counting.
(§2) In a similar manner, two-fold dilution series of antibiotics were made in polystyrene microtiter plates (Costar, REF3779, Corning NY, United States) in 70 µL volume of LB broth. […] Mid-log phase cultures were diluted to OD600 0.1 and 10 µL culture was added to each well of the microtiter plate, resulting in a total volume of 110 µL and an OD600 of ~0.01 (~3 × 10^8 CFU/mL), and the OD600 was measured every 15 min for 12 h using the microplate reader. First, the MIC values of the antibiotics alone and the MIC values of the peptides alone were determined as described previously. […]

E. coli 31 = experiment: MIC / checkerboard synergy assay; format: cell-based; conditions: Escherichia coli, 31, 12 h; read-out: MIC (compound alone)
Method: as §1, §2

A. baumannii 1757 [2] = experiment: MIC / checkerboard synergy assay (also with added LPS); format: cell-based, Acinetobacter baumannii
Method: as §1
(§3) In a similar manner, two-fold dilution series of antibiotics were made in polystyrene microtiter plates (Costar, REF3779, Corning NY, United States) in 70 µL volume of LB broth. Then, 50 µL of the antibiotic series was transferred to the peptide containing polypropylene plate, resulting in a checkerboard titration of a peptide on the vertical axis and an antibiotic on the horizontal axis. To some checkerboard assays 15 µg/mL isolated smooth (sm) LPS (from E. coli O55:B5, Sigma-Aldrich, L2880), rough (Ra) LPS (from E. coli EH100, Sigma-Aldrich, L9641) or deep rough (Rd) LPS (from E. coli F583, Sigma-Aldrich, L6893) LPS was added to the LB broth. Mid-log phase cultures were diluted to OD600 0.1 and 10 µL culture was added to each well of the microtiter plate, resulting in a total volume of 110 µL and an OD600 of ~0.01 (~3 × 10^8 CFU/mL), and the OD600 was measured every 15 min for 12 h using the microplate reader. First, the MIC values of the antibiotics alone and the MIC values of the peptides alone were determined as described previously. Similarly, the MIC values of the antibiotics in combination with the different peptides and the MIC values of the peptides in combination with the antibiotics were determined (the fractional inhibitory concentrations (FIC)). […] An FICindex between 0.5 and 1 was considered to be an additive effect.

A. baumannii 1681 = experiment: MIC / checkerboard synergy assay; format: cell-based, Acinetobacter baumannii; conditions: Acinetobacter baumannii, 1681, 12 h; read-out: MIC (compound alone)
Method: as §1, §3

A. baumannii 2196 = experiment: MIC / checkerboard synergy assay; format: cell-based, Acinetobacter baumannii; conditions: Acinetobacter baumannii, 2196, 12 h; read-out: MIC (compound alone)
Method: as §1, §3

K. pneumoniae 613 = experiment: MIC / checkerboard synergy assay; format: cell-based, Klebsiella pneumoniae; conditions: Klebsiella pneumoniae, 613, 12 h; read-out: MIC (compound alone)
Method: as §1, §3

K. pneumoniae 821 = experiment: MIC / checkerboard synergy assay; format: cell-based, Klebsiella pneumoniae; conditions: Klebsiella pneumoniae, 821, 12 h; read-out: MIC (compound alone)
Method: as §1, §3

K. pneumoniae 94 = experiment: MIC / checkerboard synergy assay; format: cell-based, Klebsiella pneumoniae; conditions: Klebsiella pneumoniae, 94, 12 h; read-out: MIC (compound alone)
Method: as §1, §3

zebrafish larvae = experiment: Toxicity in zebrafish larvae (survival after caudal vein injection); conditions: survival of uninfected larvae vs vehicle (50% DMSO), five days
Method: Transparent Casper zebrafish (Danio rerio) larvae were infected and treated according to protocols described by Van der Sar et al. and Bernard et al. [43, 44]. In short, zebrafish larvae collected from a laboratory-breeding colony kept at 24 °C and a 12:12 h dark/light regime. Larvae were selected based on morphology according to hours post fertilization (hpf) and kept at 28 °C. All protocols followed the international guidelines on the protection of animals used for scientific purposes specified by the EU Directive 2010/63/EU, which allows zebrafish larvae to be used up to the moment of free-living (5–7 dpf). Larvae were dechorionated at 28 hpf and anaesthetized in 0.2% tricaine methanesulfonate (MS222, Fluka A-5040). Larvae were individually infected with 1 nL, containing approximately 100–150 CFU (1–1.5 CFU/mL), of Gram-negative bacteria via microinjection of the caudal vein as described previously [33]. One hour post infection, larvae were treated with cationic (stapled) peptides, antibiotics or a combination of the two via another microinjection of 1 nL in the caudal vein. To correct dilution of the treatment upon injection in the vein (1 nL in 250 nL zebrafish larvae volume), treatments were diluted in 0.1% phenol red (Sigma-Aldrich, p-0290) in phosphate buffered saline (PBS) to 250 times the concentration as tested in vitro. Zebrafish larvae were kept at 30 °C throughout the experiment and survival of the larvae, based on heartbeat, was determined every 24 h for 5 days.

Structure (SMILES) | Survival (%) (A. baumannii 1757 [1]) | MIC (E. coli gsk12; Escherichia coli, GSK12, 12 h, read-out: MIC (compound alone)) | MIC (compound alone) (E. coli gsk12; compound alone, LB broth, MIC = 90% of growth prevented, OD600 over 12 h, mean ± SD) | MIC (E. coli 31) | MIC (A. baumannii 1757 [2]; Acinetobacter baumannii, 1757, 12 h, read-out: MIC (compound alone)) | MIC (A. baumannii 1757 [2]; Acinetobacter baumannii, 1757, LB medium with soluble deep rough LPS 15 µg/ml, mean ± SD, read-out: MIC, + Rd-LPS (F583)) | MIC (A. baumannii 1757 [2]; Acinetobacter baumannii, 1757, LB medium with soluble rough LPS 15 µg/ml, mean ± SD, read-out: MIC, + Ra-LPS (EH100)) | MIC (A. baumannii 1757 [2]; Acinetobacter baumannii, 1757, LB medium with soluble smooth LPS 15 µg/ml, mean ± SD, read-out: MIC, + Sm-LPS (055:B5)) | MIC (A. baumannii 1757 [2]; Acinetobacter baumannii, 1757, LB medium without supplement (Table S4), mean ± SD, read-out: MIC, No supplement) | MIC (A. baumannii 1681) | MIC (A. baumannii 2196) | MIC (K. pneumoniae 613) | MIC (K. pneumoniae 821) | MIC (K. pneumoniae 94) | Log2FoldChange compared to vehicle injected (zebrafish larvae)
CC[C@H]1OC(=O)[C@H](C)[C@@H](O[C@H]2C[C@@](C)(OC)[C@@H](O)[C@H](C)O2)[C@H](C)[C@@H](O[C@@H]2O[C@H](C)C[C@H](N(C)C)[C@H]2O)[C@](C)(O)C[C@@H](C)C(=O)[C@H](C)[C@@H](O)[C@]1(C)O [Erythromycin, erythromycin] | 0.01% |  |  |  |  |  |  |  |  |  |  |  |  |  | 
CN[C@H](CC(C)C)C(=O)N[C@H]1C(=O)N[C@@H](CC(N)=O)C(=O)N[C@H]2C(=O)N[C@H]3C(=O)N[C@H](C(=O)N[C@H](C(=O)O)c4cc(O)cc(O)c4-c4cc3ccc4O)[C@H](O)c3ccc(c(Cl)c3)Oc3cc2cc(c3O[C@@H]2O[C@H](CO)[C@@H](O)[C@H](O)[C@H]2O[C@H]2C[C@](C)(N)[C@H](O)[C@H](C)O2)Oc2ccc(cc2Cl)[C@H]1O [Vancomycin, vancomycin] |  | 78.7 ± 5.3 µM | 78.65 ± 5.3 µM | 24.5 ± 8.81 µM | 5.98 ± 4.55 µM | 5.66 ± 4.15 µM | 9.86 ± 7.36 µM | 5.88 ± 3.56 µM | 3.03 ± 2.52 µM | 19 ± 4.56 µM | 34.7 ± 24 µM | 269 ± 140 µM | 197 ± 194 µM | 263 ± 180 µM | -0.26

From article PMC8868297, “Stapling of Peptides Potentiates the Antibiotic Treatment of Acinetobacter baumannii In Vivo” (Antibiotics, 2022)
